Measurements reported in patent US8877815B2, “Substituted carbamoylcycloalkyl acetic acid derivatives as NEP” (Novartis AG, priority 2010, dated 2014).
pIC50: −log10 of the molar value.

Biological target: T1, recombinant human neutral endopeptidase (NEP, EC 3.4.24.11) (Homo sapiens, UniProt P08473)
T1 construct: made in house; host or cells: insect cells
Experiment: in vitro inhibition of recombinant human neutral endopeptidase (fluorescence lifetime assay)
Assay type: biochemical
Conditions: 1 hour pre-incubation, read after 1 hour at room temperature, pH 7.4, substrate Cys(PT14)-Arg-Arg-Leu-Trp-OH 0.7 μM
From the text: The activity of a compound according to the present invention can be assessed by the following in vitro & in vivo methods and/or by the following in vitro & in vivo methods well-described in the art. See A fluorescence lifetime-based assay for protease inhibitor profiling on human kallikrein 7 Doering K, Meder G, Hinnenberger M, Woelcke J, Mayr L M, Hassiepen U Biomol Screen. 2009 January; 14(1):1-9.
In particular, the in vitro inhibition of recombinant human neutral endopeptidase (NEP, EC 3.4.24.11) can be determined as follows:
Recombinant human neutral endopeptidase (expressed in insect cells and purified using standard methods, final concentration 7 pM) is pre-incubated with test compounds at various concentrations for 1 hour at room temperature in 10 mM sodium phosphate buffer at pH 7.4, containing 150 mM NaCl and 0.05% (w/v) CHAPS. The enzymatic reaction is started by the addition of a synthetic peptide substrate Cys(PT14)-Arg-Arg-Leu-Trp-OH to a final concentration of 0.7 μM. Substrate hydrolysis leads to an increase fluorescence lifetime (FLT) of PT14 measured by the means of a FLT reader as described by Doering et al. (2009). The effect of the compound on the enzymatic activity was determined after 1 hour (t=60 min) incubation at room temperature. The IC50 values, corresponding to the inhibitor concentration showing 50% reduction of the FLT values measured in absence of inhibitor, are calculated from the plot of percentage of inhibition vs. inhibitor concentration using non-linear regression analysis software.

T1 sequence (P08473 whole entry): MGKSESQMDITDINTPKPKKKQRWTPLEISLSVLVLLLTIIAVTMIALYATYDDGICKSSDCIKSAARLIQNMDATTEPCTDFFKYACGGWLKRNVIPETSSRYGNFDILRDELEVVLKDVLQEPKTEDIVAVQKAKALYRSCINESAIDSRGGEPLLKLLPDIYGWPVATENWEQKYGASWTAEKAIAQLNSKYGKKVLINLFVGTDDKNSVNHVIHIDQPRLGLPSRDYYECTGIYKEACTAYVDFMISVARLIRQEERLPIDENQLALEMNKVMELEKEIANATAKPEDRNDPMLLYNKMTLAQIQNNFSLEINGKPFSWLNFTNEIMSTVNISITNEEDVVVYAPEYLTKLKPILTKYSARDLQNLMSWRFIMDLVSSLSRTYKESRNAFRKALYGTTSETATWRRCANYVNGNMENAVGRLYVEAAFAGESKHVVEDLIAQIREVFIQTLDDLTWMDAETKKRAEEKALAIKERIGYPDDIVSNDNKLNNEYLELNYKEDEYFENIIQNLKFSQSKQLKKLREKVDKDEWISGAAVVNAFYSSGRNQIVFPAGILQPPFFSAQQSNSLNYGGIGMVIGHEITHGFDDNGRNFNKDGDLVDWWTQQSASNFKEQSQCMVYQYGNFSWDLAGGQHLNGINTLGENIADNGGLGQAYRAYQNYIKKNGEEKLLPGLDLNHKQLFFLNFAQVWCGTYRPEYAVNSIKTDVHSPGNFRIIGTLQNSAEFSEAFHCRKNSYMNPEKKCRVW

| pIC50 | SMILES |
| --- | --- |
| 7.92 | O=C(O)CC1(C(=O)N[C@@H](Cc2ccc(-c3ccccc3)cc2)C(=O)N2CCC[C@H]2C(=O)O)CCCC1 [Example 1-1, (S)-1-((S)-3-(biphenyl-4-yl)-2-(1-(carboxymethyl)cyclopentanecarboxamido)propanoyl)pyrrolidine-2-carboxylicacid] |
| 7.82 | O=C(O)CC1(C(=O)N[C@@H](Cc2ccc(-c3ccccc3)cc2)C(=O)O)CCCC1 [Example 1-7] |
| 7.40 | Cc1cccc(-c2ccc(C[C@H](NC(=O)C3(CC(=O)O)CCCC3)c3nnn[nH]3)cc2)c1 [Example 9-1, (S)-2-(1-(2-(3′-methylbiphenyl-4-yl)-1-(1H-tetrazol-5-yl)ethylcarbamoyl)cyclopentyl)acetic acid] |
| 7.96 | COc1cccc(-c2ccc(C[C@H](NC(=O)C3(CC(=O)O)CCCC3)c3nnn[nH]3)cc2)c1 [Example 9-2] |
| 8.00 | O=C(O)CC1(C(=O)N[C@@H](Cc2ccc(-c3ccccc3)cc2)c2nnn[nH]2)CCCC1 [Example 31-2, {1-[(S)-2-Biphenyl-4-yl-1-(1H-tetrazol-5-yl)-ethylcarbamoyl]-cyclopentyl}-acetic acid] |

| SMILES | pIC50 |
| --- | --- |
| O=C(O)CC1(C(=O)N[C@@H](Cc2ccc(-c3ccccc3Cl)cc2)c2nnn[nH]2)CCCC1 [Example 8-1] | 8.22 |
